Reference: patent US20240116923A1, “USE OF INDOLE, 6- AND 7-AZAINDOLE DERIVATIVES AS INHIBITORS OF FERROPTOSIS REGULATED CELL DEATH” (Seabelife, priority 2021, published 2024)

Legend:
Rat dopaminergic neurons = assay: Protective effect after 6-OHDA injury on rat primary dopaminergic neurons survival (TH staining); assay type: cell-based; conditions: for cellular death of dopaminergic neurons after 6-OHDA injury: 1 h before and during 2 days of 6-OHDA 20 μM (alone 48%), p<0.001; for rescue of dopaminergic neurons from cell death after 6-OHDA injury: at every concentration tested of 10 μM, 1 μM and 0.1 μM
Protocol: As explained in Ding et al., J Neurochem., 2004, (89), administration of 6-Hydroxydopamine (6-OHDA), a neurotoxin, has been widely used to cause the selective degeneration of dopamine (DA) neurons in in vitro and in vivo models. These models are used as Parkinson's disease models, which is characterized by the progressive loss of DA neurons of the substantia nigra.
Rat dopaminergic neurons were cultured as described by Schinelli et al., J Neurochem., 1988, 50(6). The cells were seeded at a density of 40 000 cells/well in 96 well-plates (precoated with poly-D-lysine; Greiner, Ref: 655940, Batch: E20093UL) and were cultured at 37° C. in a humidified air (95%)/CO2 (5%) atmosphere. Half of the medium was changed every 2 days with fresh medium. In these conditions, after 5 days of culture, astrocytes are present in the culture and release growth factor allowing neurons differentiation. In this condition, 2 to 5% of neurons are dopaminergic neurons.
6-OHDA (Sigma, Ref: 162957, Batch MKCK5243) was reconstituted in define culture medium at 40 μM (stock solution). The control medium was prepared in the same conditions. After 7 days of culture, primary mesencephalic neurons were pre-treated for 1 hour with test compounds or reference compound (BDNF, 50 ng/mL) and then intoxicated with 6-OHDA at a final concentration of 20 μM for 2 days incubation in order to induce a neuronal cell death of about 50%+/−5%.
After 2 days of intoxication in presence or absence of test compounds, cells were fixed by a solution of 4% paraformaldehyde (Sigma, ref 6148, Batch: SZBE2390V) for 20 min at room temperature, the control conditions were fixed as well following the same procedure. The cells were then permeabilized and nonspecific sites were blocked with a solution of phosphate buffered saline (PBS; PanBiotech; ref: P04-36500, Batch: 7701020) containing 0.1% of saponin (Sigma; ref: S7900, Batch: BCBL8667V) and 1% FCS for 15 min at room temperature. Cells were incubated with a mouse monoclonal anti-Tyrosine Hydroxylase (TH, 1/10 000, Sigma; ref: T1299, Batch: 014M4835) antibody in a solution of PBS overnight at 4° C. Antibody against TH stained dopaminergic neurons. […] Nuclei of cells were labelled by a fluorescent marker (Hoechst, Sigma; ref: B1155, Batch: 046M4048V) in the same solution. For each condition, 20 pictures per well were taken using InCell Analyzer™ 2200 (GE Healthcare) with 20× magnification. Images of each culture well were taken in same condition. Analysis of cell bodies of TH positive neurons was performed using Developer software (GE healthcare). A total of 6 data per experimental condition were provided.

[1] = test system: Primary cultures of porcine RPE; assay: Cellular model of retinal pigment epithelium (RPE) phototoxicity (A2E + blue light); assay type: cell-based; conditions: 10 and 30 μM, A2E 30 μM + blue light, 24 h after induction; FIG. 29
Protocol: Primary cultures of porcine RPE are prepared weekly and run on 96-well culture plates after one week in vitro. The cells are incubated with the molecule 10 minutes before induction of phototoxicity. A2E (30 μM) is added to the culture medium 19 hours before cell illumination by a device equipped with blue light emitting leds (λ=[…]). Cell survival and death are detected 24 hours after induction of phototoxicity by staining cells with Hoechst (a nuclear marker) and ethidium (a marker for dead cell nuclei). Images of each well are acquired on a fluorescence microscope equipped with a motorised stage driven by Metamorph software, and cell survival is quantified by inhouse program. The molecules are tested at 10 and 30 μM unless toxicity at this concentration. The negative control corresponds to cells treated with A2E and vehicle. The positive control corresponds to cells treated with A2E and crocetin (100 μM) 48 h before illumination. The treatments are done in quadruplicate and the experiments are performed 4 times.

male Wistar rats = assay: In vivo model of ischaemic acute renal failure induced by transient bilateral renal artery occlusion; conditions: rat, 15 mg/kg IP
Protocol: The experiment was carried out using male Wistar rats (Janvier Labs, C.S. 4105, Saint-Berthevin F-53941, France), weighing 200-260 g on the day of surgery. Before surgery, the animals were housed in groups 2-4 in polysulfone cages (floor area=1500 cm^2) under standard conditions: room temperature (22±2° C.), hygrometry (55±10%), light/dark cycle (12 h/12 h), air replacement (15-20 volumes/hour), water and food (SAFE, ref. A04) ad libitum. The animals were allowed to acclimate to environmental conditions for at least 5 days prior to experimentation. Rats were anesthetised with sodium pentobarbital (60 mg/kg i.p.), and placed on a servocontrolled heating table to maintain rectal temperature close to 37° C. After endotracheal intubation animals were mechanically ventilated. The abdominal cavity was exposed by medial laparotomy, both left and right renal arteries will be identified, carefully dissected from the renal vein and clamped for 40 min. During this clamping period the abdominal cavity was kept closed. The clamps were released, perfusion to the kidneys re-established and the abdominal cavity sutured. Animals where reperfusion were incomplete, as judged visually, were excluded. Post-surgical analgesia was ensured by subcutaneous administration of buprenorphine (10 50 μg/kg, sc) twice daily for 2 days (including the day of surgery). After surgery, the animals were individually housed. The animals were observed and weighted daily and the sutures were examined and disinfected with antiseptic solution (povidone-iodine) if needed.
A follow-up of body weight and mortality were performed for all animals, the day of surgery and during the 7 days following ischaemia. In order to determine creatinine and blood urea nitrogen (BUN) concentrations in plasma, 6 blood samples of at least 0.3 mL were taken from each animal: before surgery and then on days 1, 2, 3 (before vehicle/SBL01 administrations), 4 and 7 after surgery. The following parameters were measured: Creatinine concentration in plasma, Blood urea nitrogen concentration, and Body weight. […]

[2] = 10 μM (first value of 'respectively')

In the case of Oc1ccc(-c2cc3ccccc3[nH]2)cc1 [Compound 1, 4-(1H-indol-2-yl)phenol], the “cellular death of dopaminergic neurons after 6-OHDA injury” value (“cellular death of dopaminergic neurons” below) (Rat dopaminergic neurons; [2]) is reported as 25%, the “rescue of dopaminergic neurons from cell death after 6-OHDA injury” value (Rat dopaminergic neurons) is reported as “partially and significantly rescue” and the “cell survival of RPE cells after induction of phototoxicity” value [1] is reported as “protect RPE cells significantly against phototoxicity”.
With Oc1ccc(-c2cc3cccnc3[nH]2)cc1 [Compound 7, 4-(1H-pyrrolo[2,3-b]pyridin-2-yl)phenol] the creatinine plasma level (male Wistar rats; Day 2 after surgery, vs vehicle, FIG. 40) was “significant decrease”, the urea plasma level (male Wistar rats; Day 2 after surgery, vs vehicle, FIG. 41) was “significant decrease” and the “renal function during artery occlusion (protection against renal ischaemic failure)” value (male Wistar rats; compared to the vehicle) was “protective effect”. The “cellular death of dopaminergic neurons” value (Rat dopaminergic neurons; 1 μM (second value of 'respectively')) was 24%, the “cellular death of dopaminergic neurons” value (Rat dopaminergic neurons; [2]) was 16% and the “rescue of dopaminergic neurons from cell death after 6-OHDA injury” value (Rat dopaminergic neurons) was “partially and significantly rescue”.
